Assay results taken from US10030044B2, “Nucleotides for the treatment of liver cancer” (IDENIX PHARMACEUTICALS LLC, priority 2013, dated 2018).

Experiments:
[1] = system: HepG2 cell line; assay: In Vitro Inhibition of Hep G2 Hepatocytes (CellTiter-Glo, 72 hr); assay type: cell-based; settings: HepG2 cells, 72 hr exposure
Experimental: Cells were grown in RPMI-1640 supplemented with L-glutamine and 10% FBS: HepG2.
96 well plates of HepG2 cell line were seeded with the optimized number of cells per well in a total volume of 50 μL per well. The plates were left overnight. Some wells were seeded with 100 μL of media for media control. The following day, cells were exposed to test compounds. At same time as drug exposure, a CTG assay was conducted on 1st plate for the 0 hr count.
2× stocks of each compound in media were prepared for dosing, as follows:
50 μL of above 2× stocks were added to cells and medium already on plate to give final concentrations. 50 μL media were added to cell control wells, and 50 μL of mix added to vehicle control wells. 10 μM Dox was added to appropriate wells. Cells exposed to test compounds were incubated at 37° C. for 72 hr followed by a CTG assay.
At the end of the 72 hr exposure period, plates were removed for a CellTiter-Glo (CTG) assay from a 37° C., 5% CO2 incubator and placed on the bench at room temperature for 30 mins. 100 μL of CellTiter-Glo reagent was added and mixed for 2 mins, followed by a further 10 min incubation at room temperature. Luminescence was recorded using Synergy 4.0.

[2] = Mouse liver pharmacokinetics (liver triphosphate levels) following a single oral dose; assay type: in vivo, mice; settings: for Fold change Mouse Liver GemC TP compared to Gemcitabine / Fold change Mouse Liver GemC TP produced compared to GemU TP: single oral dose, calculated from Table 2 data
Experimental: A single oral dose of test compound in PEG 200 (dose volume 5 mL/kg) was administered to C57BL/6 male mice. Five untreated animals were used for the collection of control plasma and liver. Terminal plasma and liver samples were collected from three animals per time point at 1, 2, 4, 12, and 24 hours post dose. Liver specimens were collected from all animals immediately after the incision. Freezing forceps stored in liquid nitrogen were used to freeze the liver before excision. […]
Liver samples were analyzed for corresponding active triphosphate species by LC-MS/MS. Triphosphate levels were assayed by homogenizing (on ice) a known weight of mouse liver with 4× volume of 0.95 M trichloroacetic acid (TCA). Internal standard solution was added to the homogenate followed by neutralization with 20% ammonium hydroxide solution and addition of 500 μL 1% formic acid. The tissue samples were extracted by weak anion exchange solid phase extraction (SPE). Post extraction, the eluates were evaporated under nitrogen, followed by reconstitution before injection onto the LC-MS/MS system. The samples were chromatographed on a Luna NH2 column using a gradient system of ammonium acetate (1 mM to 20 mM and pH 8.0 to pH 10.0) in water and acetonitrile (70:30). The analyte was detected and quantified by tandem mass spectrometry in positive ion mode on an API4000 equipped with a Turbo Ionspray® interface. The calibration range was 10 to 10000 pmol/mL in mouse liver homogenate (50 to 50000 pmol/g of mouse liver).

| Structure (SMILES) | IC50 ([1]; Homo sapiens) | Fold change Mouse Liver GemC TP compared to Gemcitabine [2] | Fold change Mouse Liver GemC TP produced compared to GemU TP [2] | also measured |
| --- | --- | --- | --- | --- |
| CC(C)OC(=O)[C@@H](C)NP(=O)(OC[C@H]1O[C@@H](n2ccc(N)nc2=O)C(F)(F)[C@@H]1O)Oc1ccccc1 (single isomer, unassigned) [Compound 4, Diastereomer 1] | > 10 µM | ++++++ (100 < ++++++) | ++++ (25 < ++++ ≤ 50) | Clast ([2]; analyte GemU TP in mouse liver, single oral dose 182 mg/kg in PEG 200, 182 mg/kg): +++ (5,000 < +++ ≤ 15,000) |
| CC(C)OC(=O)[C@@H](C)NP(=O)(OC[C@H]1O[C@@H](n2ccc(N)nc2=O)C(F)(F)[C@@H]1O)Oc1ccccc1 (single isomer, unassigned) [Compound 4, Diastereomer 2] |  | ++ (5 < ++ ≤ 10) | +++ (10 < +++ ≤ 25) | IC50 [1]: > 10 µM |
| C[C@H](NP(=O)(OC[C@H]1O[C@@H](n2ccc(N)nc2=O)C(F)(F)[C@@H]1O)Oc1ccccc1)C(=O)OCc1ccccc1 (single isomer, unassigned) [drawing 124] | 1 to 10 µM |  |  | Fold change Mouse Liver GemC TP compared to Gemcitabine ([2]; listed as drawing 131): + (+ ≤ 5); Fold change Mouse Liver GemC TP produced compared to GemU TP ([2]; listed as drawing 131): + (+ ≤ 5) |
| C[C@H](NP(=O)(OC[C@H]1O[C@@H](n2ccc(N)nc2=O)C(F)(F)[C@@H]1O)Oc1ccccc1)C(=O)OCc1ccccc1 (single isomer, unassigned) [drawing 127] |  |  |  | Fold change Mouse Liver GemC TP compared to Gemcitabine ([2]; listed as drawing 130): ++++ (25 < ++++ ≤ 50); Fold change Mouse Liver GemC TP produced compared to GemU TP ([2]; listed as drawing 130): +++ (10 < +++ ≤ 25) |
| Nc1ccn([C@@H]2O[C@H](CO)[C@@H](O)C2(F)F)c(=O)n1 [Gemcitabine, gemcitabine] |  |  | + (+ ≤ 5) |  |
| Nc1ccn([C@@H]2O[C@H](CO)[C@@H](O)C2(F)F)c(=O)n1 [drawing 125] | ≤ 0.01 µM |  |  |  |
